From patent US20260216343A1, “CONJUGATE, MICELLE AND ANTICANCER AGENT” (TOHOKU UNIVERSITY, priority 2023, published 2026)
Counter-ions that a name gives are not always drawn.

Legend:
[1] = Dose-dependent in vivo toxicity / maximum tolerated dose of HF; parameters: species or system WT C57BL/6 mice
Text: (§1) Keap1^FB/FB:Kras^G12D mice were produced in the same manner as in Cancer Res, 15 Aug. 2020, 80(16):3331-3344, Genes & Dev., 2001, 15:3243-3248, and Am J Respir Cell Mol Biol., 2010 May, 42(5):524-36. All the mice used in this test had the C57BL/6J background. Saline, HF, and HFm were intravenously injected to the mice. All the in vivo experiments were approved by the animal welfare committee of Tohoku University.
(§2) Monocytes were isolated from the bone marrow, the spleen, and the thymus using Ficoll-Paque PREMIUM 1.084 (Cytiva 17-5446-02). The monocytes were stained with allophycocyanin-eFluor 780 conjugate anti-c-Kit (Invitrogen; Clone 2B8), Brilliant Violet 421 conjugate anti-B220 (Biolegend; Clone RA2-6B2), phycoerythrin conjugate anti-F4/80 (Biolegend; Clone BM8), fluorescein isothiocyanate conjugate anti-Ly6G (Biolegend; Clone 1A8), Brilliant Violet 421 conjugate anti-CD11b (Biolegend; Clone M1/70), fluorescein isothiocyanate conjugate anti-CD71 (eBiosciences; CloneR17217), phycoerythrin conjugate anti-Ter119 (eBiosciences; Clone TER-119), PE-Cyanine7 conjugate anti-CD4 (Invitrogen; CloneGK1.5), and allophycocyanin conjugate anti-CD8 (Biolegend; Clone S3-6.7). The dead cells were removed using propidium iodide staining. The analysis was made using FACSVerse (BD Biosciences). The data were analyzed using FlowJo software (BD Biosciences).
Preclinical animal testing was conducted to determine the maximum tolerated dose (hereinafter also referred to as MTD) of HF. […] Thus, in this test, HF was administered to WT C57BL/6 mice (eight to 12 weeks old, both females and males) incrementally in the range of 0.25 mg/kg to 1 mg/kg (FIG. 2A). HF was administered to the tail veins every two days four times in total.

[2] = Systemic side effect markers in cancer-bearing mice; format: in vivo, Keap1^FB/FB:Kras^G12D mice
Text: as §2
Because HF is slowly and continuously released from HFm through encapsulation of HF in polymer micelles, it was supposed that HFm may act as a far safer drug than HF. Thus, because the MTD of HF was 0.75 mg/kg bw, various side effect markers were examined in cancer-bearing model mice treated with 0.75 mg/kg bw of HFm and compared with those of the mice treated with the same amount of HF.
(§3) After KRAS-driven lung adenocarcinoma was grown for 17 weeks, the mice were treated with saline, HF (0.25 mg/kg), or HFm (0.25 mg/kg) every two days four times in total (FIG. 7A).

[3] = tested on: Nrf2-activated lung adenocarcinoma; test: Tumor suppression in Kras-driven Nrf2-activated lung adenocarcinoma mouse model; format: in vivo, Keap1^FB/FB:Kras^G12D mice
Text: as §1
Adeno-Cre was purchased from VectorBioLabs (Ad-Cre-GFP, catalog no. 1700). Adeno-Cre was administered in the same manner as in Nat Protoc 4, 2009, 1064-1072. Briefly, 1×10^7 plaque-forming units of Adeno-Cre were mixed with Eagle's minimum essential medium (MEM) and calcium chloride. The mixture was incubated on ice for 20 minutes and used for intranasal dropping within one hour of the preparation. Droplets containing the Adeno-Cre mixture were administered to the nostrils of anesthetized mice (eight to 12 weeks old) using a pipette. The mice were allowed to inhale the droplets gradually.
The lung tissues were fixed in 10% formalin (Mildform 10N; FUJIFILM Wako Pure Chemical Corporation, Osaka) and embedded in paraffin. The slices were stained with hematoxylin-eosin (HE) or elastica-Masson (EM). To measure the tumor areas, five slices were cut out with a certain distance and stained with HE. The tumor areas were measured using ImageJ software (NIH).
To examine whether administration of HF or HFm could suppress the progress of Nrf2-activated non-small-cell lung cancer (NSCLC), a Kras-driven lung adenocarcinoma mouse model was used (Genes&Dev., 2001, 15:3243-3248). A mouse having a loxP-Stop-loxP Kras^G12D-knocked-in allele (hereinafter also referred to as “Kras mouse”) was mated with a mouse having a Keap1-flox allele in the loxP site including the third and fourth exons (hereinafter also referred to as “Keap1^FB”) (Am J Respir Cell Mol Biol., 2010 May, 42(5):524-36), and thus a Keap1^FB/FB:Kras^G12D complex mouse was obtained (Cancer Res, 15 Aug. 2020, 80(16):3331-3344). Through Cre recombination by intranasal infection with Adeno-Cre, activation of Kras cancer gene and deletion of Keap1 exons were achieved simultaneously. By this operation, Nrf2-activated lung adenocarcinoma was successfully imitated in mice.
Then, after the tumor was grown for 17 weeks, administration of HF or HFm was started. HF or HFm was intravenously administered every two days, and injection was conducted four times in total. Because the MTD of HF was determined to be 0.75 mg/kg bw (FIG. 2), it was decided to use 0.75 mg/kg bw of HF or HFm in this cancer-bearing mouse experiment. The mice were sacrificed on the eighth day. Various characteristics of the lung tumors were analyzed, and the effectiveness of HF and HFm changing the tumor burden was evaluated (FIG. 4A).
Next, by EM staining of the lung slices, the influence of HF and HFm on the malignancy of tumors was examined (FIG. 4C, bottom). Using images of the slices, the lung lesions were evaluated according to the guidelines of the system of the 2015 World Health Organization Classification of Lung Tumors (Front Oncol., 2017 Aug 28, 7: 193). Briefly, lung tumors include two types, namely a lepidic lesion and a papillary lesion. A lepidic lesion indicates in situ proliferation of cells along the alveolar walls (arrows with “x”), while a papillary lesion indicates proliferation away from the alveolar walls (arrows with “y”). A tumor with many papillary lesions is called Grade II, and it is known that the prognoses of a patient having many papillary tumors is poor compared to that of a patient having many lepidic tumors (Grade I). When the main component of the tumor is composed of a solid sheet and when no recognizable lepidic or papillary pattern is found, the tumor is classified as a solid tumor (Grade III).
as §3

[4] = tested on: Nrf2 protein in Keap1 KO-mCherry cells; test: Immunoblotting of Nrf2 protein after HF treatment; format: cell-based; conditions: 50 nM HF, 0-18 hours, whole cell lysates
Protocol: (§4) For analyzing cultured cells, 1×10^6 WT-GFP and Keap1-mCherry Hepa1 cells were separately seeded on day −1 and treated with 50 nM HF on the next day (day 0). Whole cell lysates were prepared by lysing the cells with SDS buffer (0.25 M Tris-HCl (pH 6.8), 8% (w/v) SDS, and 20% glycerol) and collected 0, three, six, 12, and 18 hours after the HF treatment. An anti-Nrf2 antibody (Cell Signaling Technology, #12721, 1:500 dilution) and an anti-α-tubulin antibody (Sigma, T9026, 1:1000 dilution) were used.
(§5) To examine whether the selective decrease in the Keap1 KO-mCherry cells was caused by suppression of Nrf2 accumulation, Nrf2 protein was analyzed by immunoblotting at various points in time after isogenic Hepa1 cells were exposed to HF. […] The above experiment was repeated, and densitometry measurement of immunoblotting bands was conducted (FIG. 1F).

[5] = tested on: Nrf2 protein in WT-GFP cells; test: Immunoblotting of Nrf2 protein after HF treatment; format: cell-based; conditions: 50 nM HF, 0-18 hours, whole cell lysates
Protocol: as §4, §5

[6] = tested on: Keap1 KO-mCherry cells (Hepa1); test: Cell fluorescence analysis (relative fluorescence as cell survival) after HF treatment; format: cell-based; conditions: HF at various doses up to 50 nM, 48 hours
Protocol: (§6) WT-GFP and Keap1-mCherry Hepa1 cells were prepared in the same manner as in Mol Cell Biol., 2020 Oct 26, 40(22). The cells were maintained in Dulbecco's modified Eagle's medium (DMEM) containing 10% (v/v) fetal bovine serum and antibiotics (penicillin-streptomycin) at 37° C. and 5% CO2.
(§7) For cell fluorescence analysis, 4×10^4 WT-GFP cells and 2×10^4 Keap1-mCherry Hepa1 cells were cultured separately on day −1 in a black 96-well plate (Corning; number 3904). On day 0, HF or saline was introduced at various concentrations, and then the plate was returned to an incubator at 37° C. until day 2. The fluorescence intensities of the cells were measured using a PHERAstar FS microplate reader (BMG Labtech, Ortenberg, Germany).
(§8) HF has been reported to suppress Nrf2 accumulation in cells (FIG. 1A). To examine the tumor suppressive role of HF in Nrf2-activated tumor cells, enhanced green fluorescent protein (EGFP)-expressing wild type (WT) Hepa1 cells (hereinafter also referred to as “WT-GFP cells”) and mCherry-expressing Keap1 knockout cells (hereinafter also referred to as “Keap1 KO-mCherry cells”) were treated with HF. Both isogenic cell lines used were the same as those in Mol Cell Biol., 2020 Oct 26, 40(22). […] It has been shown in Mol Cell Biol., 2020 Oct 26, 40(22) that there is a correlation between the relative fluorescence intensity and the cell survival rate.

WT-GFP cells (Hepa1) = test: as above; format: cell-based; conditions: HF at various doses up to 50 nM, 48 hours
Protocol: as §6, §7, §8

[7] = 0.25 to 0.75 mg/kg iv four times
[8] = 0.75 mg/kg bw iv four times, vs. HFm or saline
[9] = 0.75 mg/kg bw iv four times, vs. saline

## O=C(CC1NCCCC1O)Cn1cnc2cc(Br)c(Cl)cc2c1=O (stereo not shown) [HF, Halofuginone hydrobromide]
[1]; 0.75 mg/kg iv four times
  bone marrow B cell count (B220+): decreased
  erythroblasts (Ter119+CD71+) of the spleen: most of the erythroblasts disappeared
[1]; 1 mg/kg iv every two days
  acute condition of mice: showed a sign of acute disorder after two injections and were moribund
[1]; 1 mg/kg iv, day 1 vs. day 4
  body weight change: −13.4%
[1]; 1 mg/kg iv, eight mice, after second administration
  mortality: one mouse in the administration group died
[1]; [7]
  bone marrow precursor cell count (c-Kit+): did not change largely
  bone marrow total cell count: did not change largely
  erythroblasts (Ter119+CD71+) of the spleen: decreased largely in a dose-dependent manner
  erythrocyte counts in peripheral blood: equivalent in all the groups
  leukocyte count in peripheral blood: decreased in a dose-dependent manner
  platelet counts in peripheral blood: equivalent in all the groups
  thymus weight: decreased with significance in a dose-dependent manner
  whole cells of the spleen: decreased largely in a dose-dependent manner
[1]; HF iv four times
  thymus CD4 single-positive (CD4+CD8-) cells: decreased
  thymus CD8 single-positive (CD4-CD8+) cells: tendency towards a decrease
  total cells of the thymus: decreased
[1]; increasing HF dose, iv four times
  spleen weight: decreased stepwisely
[1]; iv every two days four times
  maximum tolerated dose (MTD): 0.75 mg/kg bw
[2]; 0.25 mg/kg bw iv four times
  erythrocyte count in peripheral blood: did not affect
  leukocyte count in peripheral blood: decreased the leukocyte count with significance
[2]; 0.25 mg/kg bw iv four times, vs. other groups
  body weight changes: equivalent
[2]; 0.75 mg/kg bw iv four times
  atrophy of the thymus: remarkable
  erythroblasts (Ter119+CD71+) of the spleen: decreased with significance
  erythrocytes in peripheral blood: decreased
  hematocrit levels: decreased
  leukocyte count in peripheral blood: significant decrease
  spleen cell count: decreased with significance
  spleen weight: decreased with significance
  thymus CD4 single-positive cells (CD4+CD8-) count: decreased
  thymus double-negative cells (CD4-CD8-) count: decreased
  thymus double-positive cells (CD4+CD8+) count: decreased
  thymus total cell count: decreased significantly
  total cell count of the bone marrow: decreased significantly
[2]; [8]
  bone marrow B cells (B220+) count: decreased significantly
  bone marrow macrophages (CD11b+F4/80+) count: decreased significantly
  bone marrow neutrophils (CD11b+Ly6G+) count: decreased significantly
  bone marrow precursor cells (c-Kit+) count: decreased significantly
[2]; 0.75 mg/kg bw iv four times, vs. saline or HFm
  thymus CD8 single-positive cells (CD4-CD8+): tendency towards a lower frequency
[3]; 0.25 mg/kg bw iv four times
  number of papillary lesions vs. saline: far smaller
  number of solid tumors vs. saline: smaller with significance
[3]; 0.75 mg/kg bw iv every two days four times, day 8
  lung weight vs. saline-treated mice: lower with significance
[3]; 0.75 mg/kg bw iv four times
  solid adenocarcinomas of Grade III: disappeared completely
[3]; [9]
  number of lepidic (Grade I) tumors: equivalent numbers
  number of papillary (Grade II) tumors: equivalent numbers
[3]; 0.75 mg/kg bw iv four times, vs. saline control
  frequency of the papillary tumors: lower
[3]; 0.75 mg/kg bw iv four times, saline-treated group 21%
  tumor area (HE-stained lung sections): 10%
[3]; high dose (0.75 mg/kg)
  lung weight decrease (saline vs. treatment): 37.6%
  tumor area decrease (saline vs. treatment): 9.95%
[3]; low dose (0.25 mg/kg)
  lung weight decrease (saline vs. treatment): 25.7%
  tumor area decrease (saline vs. treatment): 7.42%
[3]; low-dose therapy (0.25 mg/kg bw)
  disappearance of solid tumors: did not disappear completely
[4]
  Nrf2 protein level: depleted rapidly
[5]
  Nrf2 protein level: not detected at all the points in time
[6]
  count of Keap1 KO-mCherry cells (relative fluorescence intensity): decreased significantly in a concentration-dependent manner
WT-GFP cells (Hepa1)
  count of WT-GFP cells (relative fluorescence intensity): did not decrease substantially
